Experimental data from paper PMC10700596 (Nature Communications, 2023).
Like-named read-outs stand apart in the source and are kept apart here.

Experiments:
EP4R [1] = biological target: T1, EP4R (Homo sapiens, UniProt P35408); test: PRESTO-Tango β-arrestin2 recruitment assay; type: cell-based; settings: for antagonist activity at EP4R: concentration-response
T1 construct: Tango fusion cassette (only 'tango' is printed); expressed in transfected cells; host or cells: HTLA cells (tTA-dependent luciferase reporter, β-arrestin2-TEV fusion)

EP4R [2] = biological target: T1, EP4R; test: biochemical; type: binding
wild-type EP4R = wild-type EP4R (Homo sapiens, UniProt P35408); test: cell-based
[3] = calculated using the Cheng Prusoff equation, read-out: PRESTO-Tango Ki*
[4] = 10 µM compound vs 10 nM 3H-PGE2, read-out: % displacement of 3HPGE2 at 10 µM
[5] = calculated using the Cheng Prusoff equation, read-out: Arrestin-BRET Ki*
[6] = PRESTO-Tango -logIC50, antagonist mode, EC80 of PGE2
[7] = PRESTO-Tango IC50 (nM), antagonist mode, EC80 of PGE2
[8] = read-out: % displacement of 3HPGE2 at 10 µM, 10 µM compound vs 10 nM 3H-PGE2

Chain of wild-type EP4R (P35408 whole entry): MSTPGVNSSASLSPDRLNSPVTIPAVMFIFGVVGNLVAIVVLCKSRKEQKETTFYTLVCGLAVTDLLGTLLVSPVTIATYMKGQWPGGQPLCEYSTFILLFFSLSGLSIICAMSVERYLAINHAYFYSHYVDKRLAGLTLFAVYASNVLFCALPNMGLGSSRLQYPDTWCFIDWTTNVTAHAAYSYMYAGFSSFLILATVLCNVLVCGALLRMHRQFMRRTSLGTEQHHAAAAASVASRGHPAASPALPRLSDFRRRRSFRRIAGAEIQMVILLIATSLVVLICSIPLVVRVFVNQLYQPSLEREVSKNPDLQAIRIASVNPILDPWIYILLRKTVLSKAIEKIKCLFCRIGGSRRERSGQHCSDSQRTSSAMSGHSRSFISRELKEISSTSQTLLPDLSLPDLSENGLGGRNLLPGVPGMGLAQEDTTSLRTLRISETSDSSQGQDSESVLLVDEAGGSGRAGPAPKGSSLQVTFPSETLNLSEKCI
T1 sequence (P35408 whole entry, the tested form may be a part): as the sequence (P35408 whole entry) above

O=C(O)C1CCC2(CC1)CC(Nc1ncnc3sc4c(c13)CCCC4)C2 (stereo not drawn) [Compound 71, OC(=O)C1CCC2(CC(C2)NC=3N=CN=C4SC=5CCCCC5C34)CC1]
IC50 (EP4R [1]; PRESTO-Tango IC50 (nM)): 850 nM
Ki (EP4R [1]; [3]): 170 nM
antagonist activity at EP4R (EP4R [1]): dose-dependent antagonist activity
inhibition at 10 µM (EP4R [2]; [4]): 62.9%
IC50 (wild-type EP4R): 899 nM
ligand efficiency (wild-type EP4R): 0.35 kcal/mol per “heavy” atom
Ki (wild-type EP4R; [5]): 180 nM

Cn1c2ccccc2c2c(NC3CC4(CCC(C(=O)O)CC4)C3)ncnc21 (stereo not drawn) [Compound 75, CN1C=2C=CC=CC2C=3C(NC4CC5(C4)CCC(CC5)C(=O)O)=NC=NC13]
IC50 (EP4R [1]; PRESTO-Tango IC50 (nM)): 607 nM
Ki (EP4R [1]; PRESTO-Tango Ki* (nM)): 121 nM
IC50 (wild-type EP4R): 813 nM
Ki (wild-type EP4R): 163 nM
reduced potency of analog (wild-type EP4R): up to 10 fold

O=C(O)C1CCC2(CC1)CC(Nc1ncnc3[nH]c4ccccc4c13)C2 (stereo not drawn) [Compound 73, OC(=O)C1CCC2(CC(C2)NC=3N=CN=C4NC=5C=CC=CC5C34)CC1]
IC50 (EP4R [1]; PRESTO-Tango IC50 (nM)): 548 nM
Ki (EP4R [1]; [3]): 110 nM
IC50 (wild-type EP4R): 146 nM
ligand efficiency (wild-type EP4R): 0.40 kcal/mol per “heavy” atom
Ki (wild-type EP4R; [5]): 29 nM

CC(C(=O)Nc1cc(C#N)ccc1CCCC(=O)O)c1ccc(F)c2ccccc12 (stereo not drawn) [ONO-AE3-208, reference compound]
Ki (wild-type EP4R; [5]): 1.3 nM

Cc1cc(C(=O)NC2CCCC(C(=O)O)CC2)c(C)n1-c1ccc2c(c1)OCCO2 (stereo not drawn) [Compound 81, CC1=CC(C(=O)NC2CCCC(CC2)C(=O)O)=C(C)N1C=3C=CC=4OCCOC4C3]
IC50 (EP4R [1]; [6]): 35500 nM
IC50 (EP4R [1]; [7]): > 10000 nM
Ki (EP4R [2]): 1170 nM

O=C(O)C1CCC2(CC1)CC(Nc1ncnc3sc4ccccc4c13)C2 (stereo not drawn) [Compound 72, OC(=O)C1CCC2(CC(C2)NC=3N=CN=C4SC=5C=CC=CC5C34)CC1]
IC50 (EP4R [1]; PRESTO-Tango IC50 (nM)): 444 nM
Ki (EP4R [1]; [3]): 89 nM
IC50 (wild-type EP4R): 514 nM
Ki (wild-type EP4R; [5]): 103 nM

O=C(O)C1CCC2(CC1)CC(Nc1ncnc3[nH]c4cc(F)ccc4c13)C2 (stereo not drawn) [Compound 134, OC(=O)C1CCC2(CC(C2)NC=3N=CN=C4NC=5C=C(F)C=CC5C34)CC1]
IC50 (EP4R [1]; PRESTO-Tango IC50 (nM)): 203 nM
Ki (EP4R [1]; PRESTO-Tango Ki* (nM)): 41 nM
IC50 (wild-type EP4R): 155 nM
Ki (wild-type EP4R): 31 nM

N#Cc1ccc(OCc2cccc(C(=O)Nc3cccc(-c4nnn[nH]4)c3)c2)cc1 [Compound 70, O=C(NC=1C=CC=C(C1)C2=NN=NN2)C=3C=CC=C(COC=4C=CC(C#N)=CC4)C3]
IC50 (EP4R [1]; PRESTO-Tango -logIC50): 14500 nM
IC50 (EP4R [1]; PRESTO-Tango IC50 (nM)): > 10000 nM
antagonist activity at EP4R (EP4R [1]): dose-dependent antagonist activity
inhibition at 10 µM (EP4R [2]; [8]): 56.2%

O=C(O)CC1CN(C(=O)[C@@H]2C[C@]23CCOc2ccccc23)c2ccccc21 (stereo partly drawn) [Compound 65, OC(=O)CC1CN(C(=O)[C@@H]2C[C@@]32CCOC=4C=CC=CC43)C=5C=CC=CC15]
IC50 (EP4R [1]; [7]): 5160 nM
Ki (EP4R [1]; PRESTO-Tango Ki* (nM), calculated using the Cheng Prusoff equation): 1030 nM
antagonist activity at EP4R (EP4R [1]): dose-dependent antagonist activity
inhibition at 10 µM (EP4R [2]; read-out: 3H-PGE2 Displacement by 10 µM of docking hits (Displacment), 10 µM compound, individual replicate values (Figure 1B source data)): 23.4%
inhibition at 10 µM (EP4R [2]; [8]): 24%

O=C(O)C1CCC2(CC1)CC(Nc1ncnc3[nH]c4ccc(Br)cc4c13)C2 (stereo not drawn) [Compound 135, OC(=O)C1CCC2(CC(C2)NC=3N=CN=C4NC=5C=CC(Br)=CC5C34)CC1]
IC50 (EP4R [1]; PRESTO-Tango IC50 (nM)): 91.5 nM
Ki (EP4R [1]; PRESTO-Tango Ki* (nM)): 18.3 nM
IC50 (wild-type EP4R): 136 nM
Ki (wild-type EP4R): 27.2 nM

O=C(N[C@@H]1CC[C@@H](C(=O)O)CCC1(F)F)c1c[nH]c(-c2ccccc2)c1 [Compound 80, OC(=O)[C@@H]1CC[C@@H](NC(=O)C2=CNC(=C2)C=3C=CC=CC3)C(F)(F)CC1]
IC50 (EP4R [1]; [6]): 18600 nM
IC50 (EP4R [1]; [7]): > 10000 nM
Ki (EP4R [2]): 1380 nM

O=C(NC1CCCC(C(=O)O)CC1)c1csc(C2CCCCC2)c1 (stereo not drawn) [Compound 66, OC(=O)C1CCCC(CC1)NC(=O)C2=CSC(=C2)C3CCCCC3]
IC50 (EP4R [1]; PRESTO-Tango -logIC50): 3720 nM
IC50 (EP4R [1]; PRESTO-Tango IC50 (nM)): 3760 nM
Ki (EP4R [1]; [3]): 752 nM
antagonist activity at EP4R (EP4R [1]): dose-dependent antagonist activity
inhibition at 10 µM (EP4R [2]; [4]): 25.6%
IC50 (wild-type EP4R): 4050 nM
Ki (wild-type EP4R; [5]): 810 nM

O=C(O)Cc1ccc(NC(=O)c2cc(C3CC3)nc3ccc(F)cc23)cc1 [Compound 68, OC(=O)CC=1C=CC(NC(=O)C=2C=C(N=C3C=CC(F)=CC23)C4CC4)=CC1]
IC50 (EP4R [1]; [6]): 11000 nM
IC50 (EP4R [1]; [7]): > 10000 nM
antagonist activity at EP4R (EP4R [1]): dose-dependent antagonist activity
inhibition at 10 µM (EP4R [2]; [8]): 31.8%

CN1C(=O)C(=Cc2cccc(OCC(=O)O)c2)c2cc(Br)cnc21 [Compound 62, CN1C(=O)C(=CC=2C=CC=C(OCC(=O)O)C2)C=3C=C(Br)C=NC13]
IC50 (EP4R [1]; [6]): 3470 nM
IC50 (EP4R [1]; [7]): 3510 nM
Ki (EP4R [1]; PRESTO-Tango Ki* (nM)): 702 nM
antagonist activity at EP4R (EP4R [1]): dose-dependent antagonist activity
inhibition at 10 µM (EP4R [2]; [8]): 17.2%

c1ccc(-c2nc(SCc3nnn[nH]3)oc2-c2ccccc2)cc1 [Compound 20, C(SC1=NC(=C(O1)C=2C=CC=CC2)C=3C=CC=CC3)C4=NN=NN4]
inhibition at 10 µM (EP4R [2]; [8]): -12.7%

CN(C(=O)C1CCCC1Cc1ccccc1)[C@H]1C[C@@H](C(=O)O)C1 (stereo partly drawn) [Compound 40, CN([C@H]1C[C@H](C1)C(=O)O)C(=O)C2CCCC2CC=3C=CC=CC3]
inhibition at 10 µM (EP4R [2]; [8]): -4%

CCc1ccc(C(=O)Nc2cccc(-c3nnn[nH]3)c2)c(C)n1 [Compound 63, CCC=1C=CC(C(=O)NC=2C=CC=C(C2)C3=NN=NN3)=C(C)N1]
inhibition at 10 µM (EP4R [2]; [8]): 19.3%

O=C(O)C1(n2cc(Cc3ccc(F)cc3F)cn2)CCC(c2ccccc2)CC1 (stereo not drawn) [Compound 1, OC(=O)C1(CCC(CC1)C=2C=CC=CC2)N3C=C(CC=4C=CC(F)=CC4F)C=N3]
inhibition at 10 µM (EP4R [2]; [8]): -28.7%

CCSc1cc(C(=O)O)ccc1NC(=O)c1cnn(-c2ccccc2F)c1 [Compound 59, CCSC=1C=C(C=CC1NC(=O)C=2C=NN(C2)C=3C=CC=CC3F)C(=O)O]
inhibition at 10 µM (EP4R [2]; [8]): 11.6%
